These results are taken from patent publication US7919496B2, “Heterocyclic derivatives for the treatment of diseases mediated by stearoyl-CoA desaturase enzymes” (Xenon Pharmaceuticals Inc., priority 2004, dated 2011).

SMILES strings stand for the structures.

The melting point is the temperature of the solid-liquid transition. In turn, `CCCCCNC(=O)c1cc(N2CCN(C(=O)c3ccccc3C(F)(F)F)CC2)nn1C(=O)OCc1ccccc1` [Example 6, 5-PENTYLCARBAMOYL-3-[4-(2-TRIFLUOROMETHYLBENZOYL)PIPERAZIN-1-YL]PYRAZOLE-1-CARBOXYLIC ACID BENZYL ESTER] came in with a melting point of 58 to 61 °C.

In turn, `CCCCCNC(=O)c1cnc(N2CCN(C(=O)c3ccccc3C(F)(F)F)CC2)s1` [Example 7, 2-[4-(2-TRIFLUOROMETHYLBENZOYL)PIPERAZIN-1-YL]-THIAZOLE-5-CARBOXYLIC ACID PENTYLAMIDE] returned a melting point of 92 to 94 °C.
